The nature of series [1]: Phase I metabolic stability in rat liver microsomes (with NADPH). The following applies: pH 7.4, presence of NADPH, mean ± SD, n = 3. It is filed as in vitro ADME. In outline:
(§1)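 Liver microsomes were incubated in 100 mM potassium phosphate pH 7.4 with an NADPH-regenerating system (1.3 mM NADPH). Cofactor-free controls gauged non-CYP metabolism. Parent loss was followed in triplicate by LC-MS/MS (orbitrap, positive HESI, full scan), comparing 0, 30 and 60 min samples.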
A general note: Liver microsomes are vesicles of endoplasmic reticulum, rich in cytochrome P450 enzymes.

Series [2] can be described thus: Phase I metabolic stability in human liver microsomes (with NADPH). It is filed as in vitro ADME. To be noted: pH 7.4, presence of NADPH, mean ± SD, n = 3. Put shortly:
as §1

For one compound, half-life results are on record in paper PMC12910498 (ACS pharmacology & translational science, 2026).

SMILES strings stand for the structures.

Broadly, the half-life is how long it takes for the measured level to halve.

On to `Cc1cccc(-n2cc(CN3CCN(c4cccc5ccccc45)CC3)nn2)c1` [Compound 18, 1-(Naphthalen-1-yl)-4-((1-(m-tolyl)-1H-1,2,3-triazol-4-yl)methyl)piperazine], for which the half-life in series [1] stood at 56.8 ± 10.2 min; in series [2], 61 ± 7.72 min.
